# Measured values as given in patent US20220160617A1, “COMPOSITIONS AND METHODS FOR IMPROVING SKIN HEALTH AND FOR THE TREATMENT AND PREVENTION OF DISEASES, DISORDERS AND CONDITIONS ASSOCIATED WITH PATHOGENIC MICROBES” (DermBiont, Inc., priority 2019, published 2022).
# Where a SMILES comes first, the peptide text is derived from it. Bridges are numbered along the chain shown (N, C = ends). [ ]: non-standard residue; d: D form. The star is where a group is joined. Ileψ(thiazoline)Cys = CC[C@H](C)[C@H](N)C1=N[C@H](C(=O)*)CS1; dOrn = NCCC[C@@H](N)C(=O)O
# Columns and labels:
# E. Coli ATCC25922 [1] = settings: cited from earlier work
# [2] = test system: Janthinobacterium lividum strains; experiment: Antibiotic MIC tests, sensitivity summary; format: cell-based
# Protocol: (§1) The antibiotic resistance profile and MICs tests were performed using Janthinobacterium lividum grown from cultures purified and grown in vegitone LB broth.
# [3] = test system: Janthinobacterium lividum strains; experiment: Internal antibiotic resistance test (BD BBL Sensi-Disc zone of inhibition); format: cell-based; settings: all 5 strains; disc content per antibiotic
# Protocol: One Janthinobacterium lividum colony of 3-day old grown in 50% BHI agar was mixed well in 1 ml of 1×PBS buffer, diluted 10× and 100×, respectively. 200 μl of diluted Janthinobacterium lividum cells were evenly plated onto R2A/BHI agar plates in triplicate in 150 mm petri dishes. Antibiotic discs (BD BBL Sensi-Disc antimicrobial susceptibility test discs) were dispensed using a Disc dispenser (BD BBL Sensi-Disc Designer Dispenser System, 12-Place). Plates were incubated for 2-3 days at room temperature and imaged at the end of incubation.
# The sensitivity of Janthinobacterium lividum to antibiotics is reflected by a clear zone of inhibition of Janthinobacterium lividum cells surrounding the antibiotic discs. The zone of inhibition was measured using ImageJ and was transformed into cm for analysis.
# [4] = test system: Janthinobacterium lividum DB00121; experiment: Antibiotic MIC test; format: cell-based; settings: Janthinobacterium lividum, DB00121
# Protocol: as §1
# [5] = test system: Janthinobacterium lividum DB02378; experiment: Antibiotic MIC test; format: cell-based; settings: Janthinobacterium lividum, DB02378
# Protocol: as §1
# [6] = test system: Janthinobacterium lividum DB02473; experiment: Antibiotic MIC test; format: cell-based; settings: Janthinobacterium lividum, DB02473
# Protocol: as §1
# E. Coli ATCC25922 [7] = experiment: Antibiotic MIC test; format: cell-based; settings: Escherichia coli, read-out: MIC
Molecule,"MIC, CLSI QC ranges (E. Coli ATCC25922 [1])",sensitivity of Janthinobacterium lividum to antibiotic disc [3],further results
C[C@H]1[C@H](NC(=O)/C(=N\OC(C)(C)C(=O)O)c2csc(N)n2)C(=O)N1S(=O)(=O)O [Aztreonam],0.06 to 0.25 µg/mL,,sensitivity of Janthinobacterium lividum strains to antibiotic [2]: less sensitive
CC[C@H]1OC(=O)[C@H](C)[C@@H](O[C@H]2C[C@@](C)(OC)[C@@H](O)[C@H](C)O2)[C@H](C)[C@@H](O[C@@H]2O[C@H](C)C[C@H](N(C)C)[C@H]2O)[C@](C)(O)C[C@@H](C)C(=O)[C@H](C)[C@@H](O)[C@]1(C)O [Erythromycin],,sensitive,
O=C(O)c1cn(C2CC2)c2cc(N3CCNCC3)c(F)cc2c1=O [Ciprofloxacin],,sensitive,
C[C@H]1COc2c(N3CCN(C)CC3)c(F)cc3c(=O)c(C(=O)O)cn1c23 [Levofloxacin],,,MIC [4]: 0.125 µg/mL
CO/N=C(\C(=O)N[C@@H]1C(=O)N2C(C(=O)O)=C(CSc3nc(=O)c(=O)[nH]n3C)CS[C@H]12)c1csc(N)n1 [Ceftriaxone],0.03 to 0.12 µg/mL,,
NCC[C@H](O)C(=O)N[C@@H]1C[C@H](N)[C@@H](O[C@H]2O[C@H](CN)[C@@H](O)[C@H](O)[C@H]2O)[C@H](O)[C@H]1O[C@H]1O[C@H](CO)[C@@H](O)[C@H](N)[C@H]1O [Amikacin],0.5 to 4 µg/mL,,
CO/N=C(\C(=O)N[C@@H]1C(=O)N2C(C(=O)[O-])=C(C[N+]3(C)CCCC3)CS[C@H]12)c1csc(N)n1 [Cefepime],0.016 to 0.12 µg/mL,,MIC [4]: 0.125 µg/mL; MIC [5]: 0.125 µg/mL; MIC [6]: 0.125 µg/mL
C[C@@H](O)[C@H]1C(=O)N2C(C(=O)O)=C(S[C@@H]3CN[C@H](C(=O)N(C)C)C3)[C@H](C)[C@H]12 [Meropenem],0.008 to 0.06 µg/mL,,sensitivity of Janthinobacterium lividum strains to antibiotic [2]: less sensitive
penicillin,,sensitive,
CC(=O)OCC1=C(C(=O)O)N2C(=O)[C@@H](NC(=O)Cc3cccs3)[C@H]2SC1 [cephalothin],,sensitive,
[H]/N=C(/N)N[C@H]1[C@H](O)[C@@H](O)[C@H](O[C@@H]2O[C@@H](C)[C@](O)(C=O)[C@H]2O[C@@H]2O[C@@H](CO)[C@H](O)[C@@H](O)[C@@H]2NC)[C@@H](N/C(N)=N\[H])[C@@H]1O [streptomycin],,sensitive,
CC[C@H](C)[C@H](N)C1=N[C@H](C(=O)N[C@@H](CC(C)C)C(=O)N[C@H](CCC(=O)O)C(=O)N[C@H](C(=O)N[C@H]2CCCCNC(=O)[C@H](CC(N)=O)NC(=O)[C@@H](CC(=O)O)NC(=O)[C@H](Cc3cnc[nH]3)NC(=O)[C@@H](Cc3ccccc3)NC(=O)[C@H]([C@@H](C)CC)NC(=O)[C@@H](CCCN)NC2=O)[C@@H](C)CC)CS1 [Bacitracin] ({Ileψ(thiazoline)Cys}-L[dE]IK[dOrn]I[dF]H[dD]N; lactam 4-C),,,sensitivity of Janthinobacterium lividum strains to antibiotic [2]: resistant
CCC[C@@H]1C[C@@H](C(=O)N[C@@H]([C@H]2O[C@H](SC)[C@H](O)[C@@H](O)[C@H]2O)[C@H](C)Cl)N(C)C1 [Clindamycin],,,MIC (E. Coli ATCC25922 [7]): > 64 µg/mL
CC1(C)S[C@@H]2[C@H](NC(=O)[C@H](N)c3ccccc3)C(=O)N2[C@H]1C(=O)O [ampicillin],,sensitive,
CN[C@H](CC(C)C)C(=O)N[C@H]1C(=O)N[C@@H](CC(N)=O)C(=O)N[C@H]2C(=O)N[C@H]3C(=O)N[C@H](C(=O)N[C@H](C(=O)O)c4cc(O)cc(O)c4-c4cc3ccc4O)[C@H](O)c3ccc(c(Cl)c3)Oc3cc2cc(c3O[C@@H]2O[C@H](CO)[C@@H](O)[C@H](O)[C@H]2O[C@H]2C[C@](C)(N)[C@H](O)[C@H](C)O2)Oc2ccc(cc2Cl)[C@H]1O [vancomycin],,sensitive,
O=C(N[C@H](CO)[C@H](O)c1ccc([N+](=O)[O-])cc1)C(Cl)Cl [Chloramphenicol],2 to 8 µg/mL,sensitive,sensitivity of Janthinobacterium lividum strains to antibiotic [2]: less sensitive
